In US8354405B2, “6-cycloamino-3-(pyrid-4-yl)imidazo[1,2-b]pyridazine derivatives, preparation thereof and therapeutic use thereof” (Sanofi, priority 2007, dated 2013):

Tests used:
[1] = biological target: casein kinase 1 epsilon (CK1 epsilon) (Homo sapiens, UniProt P49674); test: Filter-plate assay of ATP-33P for CK1 epsilon inhibitors (casein phosphorylation); type: biochemical; conditions: inhibition of phosphorylation of casein, ATP-33P filter-plate, ATP 10 μM
Method: The capacity of the compounds of the invention to inhibit the phosphorylation of casein by casein kinases 1 epsilon and delta may be evaluated according to the procedure described in document US 2005/0 131 012.
Filter-Plate Assay of ATP-^33P for the Screening of CK1 Epsilon Inhibitors:
The effect of the compounds on inhibition of the phosphorylation of casein by the enzyme casein kinase 1 epsilon (CK1 epsilon) is measured, using a casein assay via filtration of ATP-^33P in vitro.
Casein kinase 1 epsilon (0.58 mg/ml) is obtained via fermentation and purification processes performed according to methods that are well known to those skilled in the art, or may also be obtained from Invitrogen Corporation™ (human CK1 epsilon).
The compounds are tested at five different concentrations so as to generate IC50 values, i.e. the concentration at which a compound is capable of inhibiting the enzymatic activity by 50%, or alternatively the percentage of inhibition at a concentration of 10 micromolar.
“U”-bottomed Falcon plates are prepared by placing 5 μL of solutions of the compounds according to the invention at concentrations of 10, 1, 0.1, 0.01 or 0.001 μM in different wells. The solutions of the compounds according to the invention at these various concentrations are prepared by diluting in a test buffer (Tris 50 mM pH 7.5, MgCl2 […], DTT 2 mM and EGTA 1 mM) a stock solution in DMSO at a concentration of 10 mM. Next, 5 μL of dephosphorylated casein are added to a final concentration of 0.2 μg/μL, 20 μL of CK1 epsilon to a final concentration of 3 ng/μL, and 20 μL of ATP-^33P to a final concentration of 0.02 μCi/μL mixed with cold ATP (10 μM final—approximately 2×10^6 CPM per well). The final total test volume per well is equal to 50 μL.
The “U”-bottomed Falcon® test plate mentioned above is vortexed, and then incubated at room temperature for 2 hours. After 2 hours the reaction is stopped by adding an ice-cold solution of 65 μL of cold ATP (2 mM) prepared in test buffer.
100 μL of the reaction mixture are then transferred from the “U”-bottomed Falcon® plate into Millipore® MAPH filter plates, preimpregnated with 25 μL of ice-cold 100% TCA.
The Millipore MAPH filter plates are agitated gently and are left to stand at room temperature for at least 30 minutes to precipitate the proteins.
After 30 minutes, the filter plates are sequentially washed and filtered with 2×150 μL of 20% TCA, 2×150 μL of 10% TCA and 2×150 μL of 5% TCA (6 washes in total per plate/900 μL per well).
The plates are left to dry overnight at room temperature. Next, 40 μL of Microscint-20 Packard® scintillation liquid are added per well and the plates are closed in a leak tight manner. The radiation emitted by each well is then measured for 2 minutes in a TopCount NXT Packard® scintillation counter, in which the values of CPM/well are measured.
The percentage inhibition of the capacity of the enzyme to phosphorylate the substrate (casein) is determined for each concentration of test compound. These inhibition data expressed as percentages are used to calculate the IC50 value for each compound compared with the controls.
The kinetic studies determined the KM value for ATP as being 21 μM in this test system.

human CK1 delta = biological target: T1, human CK1 delta (Homo sapiens, UniProt P48730); test: FRET fluorescence test, Z'Lyte kinase assay kit, CK1 delta; type: biochemical; conditions: peptide SER/THR 11 2 μM, ATP 4 times KM
T1 construct: purchased Invitrogen Corporation PV3665
T1 sequence (P48730 whole entry): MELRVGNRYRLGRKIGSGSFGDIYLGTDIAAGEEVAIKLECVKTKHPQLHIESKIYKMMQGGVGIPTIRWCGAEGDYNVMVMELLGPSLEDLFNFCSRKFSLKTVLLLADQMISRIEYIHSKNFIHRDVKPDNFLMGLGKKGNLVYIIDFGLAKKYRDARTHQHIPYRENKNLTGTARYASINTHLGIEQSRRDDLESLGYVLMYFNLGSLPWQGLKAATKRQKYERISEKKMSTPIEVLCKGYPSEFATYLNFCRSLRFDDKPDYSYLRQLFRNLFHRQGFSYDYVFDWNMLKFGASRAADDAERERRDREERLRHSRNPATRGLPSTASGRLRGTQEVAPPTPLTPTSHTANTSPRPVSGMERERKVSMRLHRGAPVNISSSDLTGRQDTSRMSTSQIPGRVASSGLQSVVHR
Text: The capacity of the compounds of the invention to inhibit the phosphorylation of casein by the casein kinases 1 epsilon and delta may be evaluated using an FRET (Fluorescence Resonance Energy Transfer) fluorescence test with the aid of the “Z′Lyte™ kinase assay kit” (reference PV3670; Invitrogen Corporation™) according to the manufacturer's instructions.
The casein kinases 1 used are obtained from Invitrogen Corporation (human CK1 epsilon PV3500 and human CK1 delta PV3665).
A peptide substrate, labeled at both ends with a fluorophore-donating group (coumarin) and a fluorophore-accepting group (fluorescein) constituting an FRET system is […] in the presence of ATP by casein kinase 1 epsilon or delta in the presence of increasing concentrations of compounds of the invention.
The mixture is treated with a site-specific protease that specifically cleaves the substrate peptide to form two fluorescent fragments having a large fluorescence emission ratio.
The fluorescence observed is thus related to the capacity of the products of the invention to inhibit the phosphorylation of the substrate peptide by casein kinase 1 epsilon or casein kinase 1 delta.
The compounds of the invention are dissolved at different concentrations starting with a 10 mM stock solution in DMSO diluted in a buffer containing 50 mM HEPS, pH 7.5, 1 mM EGTA, 0.01% Brij-35, 10 mM MgCl2 for casein kinase 1 epsilon and supplemented with Trizma Base (50 mM), pH 8.0 and NaN3 (0.01% final) for casein kinase 1 delta.
The phosphorylation of the substrate peptide SER/THR 11 obtained from Invitrogen Corporation™ is performed at a final concentration of 2 μM. The ATP concentration is 4 times the KM, this value being 2 μM for casein kinase 1 epsilon and 4 μM for casein kinase 1 delta.
The emitted fluorescence is measured at wavelengths of 445 and 520 nm (excitation at 400 nm).

[2] = test system: Mper1-luc Rat-1 (P2C4) fibroblasts; test: Circadian cell assay (mPer1-luciferase reporter, period prolongation); type: cell-based; conditions: effective concentration that induces a 1-hour prolongation of the circadian period
Method: Experimental Protocols for Circadian Cell Assay
Mper1-luc Rat-1 (P2C4) fibroblast cultures were prepared by dividing the cultures every 3-4 days (about 10-20% of confluence) on 150 cm^2 degassed polystyrene tissue culture flasks (Falcon® #35-5001) and maintained in growth medium [EMEM (Cellgro #10-010-CV); 10% fetal bovine serum (FBS; Gibco #16000-044); and 50 I.U./mL of penicillin-streptomycin (Cellgro #30-001-CI)] at 37° C. and under 5% CO2.
Cells obtained from Rat-1 fibroblast cultures at 30-50% of confluence as described above were co-transfected with vectors containing the selection marker for resistance to zeocin for a stable transfection and a luciferase reporter gene directed by the promoter mPer-1. After 24 to 48 hours, the cultures were divided on 96-well plates and maintained in growth medium supplemented with 50-100 μg/mL of zeocin (Invitrogen® #45-0430) for 10-14 days. The zeocin-resistant stable transfectants were evaluated for expression of the reporter by adding to the growth medium luciferin 100 μM (Promega® #E1603®) and by assaying the luciferase activity on a TopCount® scintillation counter (Packard model #C384V00). The Rat-1 cell clones expressing both zeocin resistance and luciferase activity directed by mPer1 were serum-shock synchronized with 50% horse serum [HS (Gibco® #16050-122)] and the activity of the circadian reporter was evaluated. The P2C4 clone of fibroblasts Mper1-luc Rat-1 was selected to test the compound.
The Mper1-luc Rat-1 (P2C4) fibroblasts at 40-50% of confluence obtained according to the protocol described above were plated out onto 96-well opaque tissue culture plates (Perkin Elmer® #6005680). The cultures are maintained in growth medium supplemented with 100 μg/mL of zeocin (Invitrogen #45-0430) until they reached 100% of confluence (48-72 hours). The cultures were then synchronized with 100 μL of synchronization medium [EMEM (Cellgro #10-010-CV); 100 I.U./mL of penicillin-streptomycin (Cellgro #30-001-C1); 50% HS (Gibco #16050-122)] for 2 hours at 37° C. and under 5% CO2. After synchronization, the cultures were rinsed with 100 μL of EMEM (Cellgro #10-010-CV) for 10 minutes at room temperature. After rinsing, the medium is replaced with 300 μL of CO2-independent medium [CO2I (Gibco #18045-088); L-glutamine 2 mM (Cellgro #25-005-C1); 100 U.I./mL of penicillin-streptomycin (Cellgro #30-001-C1); luciferin 100 μM (Promega #E 1603)]. […]
The two methods produced a virtually identical period estimation on a range of circadian periods. […] The data were analyzed by adjusting a hyperbolic curve to the data expressed as change of period (y-axis) as a function of the concentration of the test compound (x-axis) in the XLfit™ software and the CE Delta (t+1 h) was interpolated from this curve.

casein kinase 1 epsilon (CK1 epsilon), sequence (P49674 whole entry): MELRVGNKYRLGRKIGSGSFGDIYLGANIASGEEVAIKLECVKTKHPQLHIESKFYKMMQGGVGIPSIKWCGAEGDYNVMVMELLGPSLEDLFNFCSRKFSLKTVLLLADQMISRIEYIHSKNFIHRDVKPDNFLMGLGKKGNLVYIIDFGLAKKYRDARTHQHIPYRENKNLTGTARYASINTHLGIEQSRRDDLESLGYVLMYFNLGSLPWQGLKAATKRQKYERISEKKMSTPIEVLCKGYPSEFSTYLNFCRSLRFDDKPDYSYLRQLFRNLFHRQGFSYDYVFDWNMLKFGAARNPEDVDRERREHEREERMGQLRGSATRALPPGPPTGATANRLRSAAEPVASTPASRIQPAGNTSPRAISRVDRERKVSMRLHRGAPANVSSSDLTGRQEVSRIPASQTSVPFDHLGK

| Compound | IC50 [1] | IC50 (human CK1 delta) | melting point | CE Delta (t + 1 h) [2] |
| --- | --- | --- | --- | --- |
| c1ccc(-c2nc3ccc(N4CCNCC4)nn3c2-c2ccncc2)cc1 [Compound 1, 2-Phenyl-6-piperazin-1-yl-3-pyrid-4-ylimidazo[1,2-b]pyridazine] | 3 nM | – | – | – |
| c1ccc(-c2nc3ccc(N4CCC(N5CCCC5)CC4)nn3c2-c2ccncc2)cc1 [Compound 147, 2-Phenyl-3-pyrid-4-yl-6-(4-pyrrolidin-1-ylpiperid-1-yl)-imidazo[1,2-b]pyridazine] | 22 to 116 nM | 50 to 53 nM | – | – |
| CC1(C)CN(c2ccc3nc(-c4cc(F)cc(F)c4)c(-c4ccncc4)n3n2)CCN1 [Compound 31, 2-(3,5-Difluorophenyl)-6-(3,3-dimethylpiperazin-1-yl)-3-pyrid-4-ylimidazo[1,2-b]pyridazine] | – | 91 to 93 nM | – | – |
| Fc1ccc(-c2nc3ccc(N4CC5CN(C6CC6)CC5C4)nn3c2-c2ccncc2)cc1 (stereo not shown) [Compound 115, 6-(5-Cyclopropylhexahydropyrrolo[3,4-c]pyrrol-2(1H)-yl)-2-(4-fluorophenyl)-3-pyrid-4-ylimidazo[1,2-b]pyridazine] | – | – | 204 to 206 °C | 2 nM |
| {4-[2-(4-Fluorophenyl)-6-((R)-3-methylpiperazin-1-yl)imidazo[1,2-b]pyridazin-3-yl]pyrid-2-yl}methylamine [Compound 153] | 8 nM | – | – | 2 to 9 nM |
| Cc1c(N2CCNCC2)nn2c(-c3ccncc3)c(-c3ccc(F)cc3)nc2c1C [Compound 3, 2-(4-Fluorophenyl)-7,8-dimethyl-6-piperazin-1-yl-3-pyrid-4-ylimidazo[1,2-b]pyridazine] | 1 nM | – | – | – |
| Cc1cc(C)cc(-c2nc3ccc(N4CCNC(C)(C)C4)nn3c2-c2ccnc(N)c2)c1 [Compound 30, 4-[2-(3,5-Dimethylphenyl)-6-(3,3-dimethylpiperazin-1-yl)imidazo[1,2-b]pyridazin-3-yl]pyrid-2-ylamine] | 60 nM | – | – | – |

Second part, led by results:

| IC50 [1] | IC50 (human CK1 delta) | melting point | Compound | CE Delta (t + 1 h) [2] |
| --- | --- | --- | --- | --- |
| – | – | 193 to 195 °C | CN(C)C1CCN(c2ccc3nc(-c4ccc(F)cc4)c(-c4ccncc4)n3n2)CC1 [Compound 146, {1-[2-(4-Fluorophenyl)-3-pyrid-4-ylimidazo[1,2-b]pyridazin-6-yl]piperid-4-yl}dimethylamine] | 39 nM |
| – | 5 nM | – | CN1CCN(c2ccc3nc(-c4ccc(F)cc4)c(-c4ccncc4)n3n2)CC1 [Compound 50, 2-(4-Fluorophenyl)-6-(4-methylpiperazin-1-yl)-3-pyrid-4-ylimidazo[1,2-b]pyridazine] | 28 nM |
| – | 59 to 110 nM | 236 to 239 °C | CC(C)N1CCN(c2ccc3nc(-c4ccc(Cl)cc4)c(-c4ccnc(N)c4)n3n2)CC1 [Compound 81, 4-[2-(4-Chlorophenyl)-6-(4-isopropylpiperazin-1-yl)imidazo[1,2-b]pyridazin-3-yl]pyrid-2-ylamine] | – |
